Experiments:
[1] = system: arginase 1 (ARG1); experiment: Western blot of arginase 1 expression in HCAE cells with or without TNFα; assay type: cell-based, human; settings: TNFα 24 h, normoxic
Protocol: Human coronary artery endothelial cells (HCAE cells, Cambrex Bio Science Walkersville, Walkersville, Md.) were cultured in 5% CO2 at 37° C. in endothelial cell growth medium (EGM) supplemented with 2% fetal bovine serum and Single Quot supplements (Clonetics, San Diego, Calif.; containing epidermal growth factor, hydrocortisone, vascular endothelial growth factor, fibroblast growth factor, insulin growth factor, ascorbic acid, heparin, gentamycin, and amphotericin B). Cells were used between passages 4 and 6 for these studies. HCAE cells were plated at a density of 50,000 cells per well in 12-well plates and were grown for 3 days to reach confluency. […] Cells were then incubated in normoxic or 1% hypoxic conditions for the indicated times.
The cell lysates were subjected to SDS-PAGE in a 10% polyacrylamide gel and transferred to a nitrocellulose membrane (0.2-μm, Invitrogen). After blocking with 5% milk, the membrane was incubated overnight at 4° C. with primary antibodies against phospho-eNOS (Ser 1177) and eNOS (Cell Signaling Technology, Beverly, Mass.), human type-1 arginase (clone 9C5) (Cell Sciences, Canton, Mass.), or GAPDH (Santa Cruz Biotechnology, Santa Cruz, Calif.). HRP-conjugated anti-mouse or anti-rabbit antibodies (Cell Signaling Technology) were used as secondary antibodies (HRP, horseradish peroxidase). […]

[2] = system: eNOS; experiment: Western blot of eNOS expression and phosphorylation (S1177) in HCAE cells; assay type: cell-based, human; settings: 24 h
Protocol: (§1) Human coronary artery endothelial cells (HCAE cells, Cambrex Bio Science Walkersville, Walkersville, Md.) were cultured in 5% CO2 at 37° C. in endothelial cell growth medium (EGM) supplemented with 2% fetal bovine serum and Single Quot supplements (Clonetics, San Diego, Calif.; containing epidermal growth factor, hydrocortisone, vascular endothelial growth factor, fibroblast growth factor, insulin growth factor, ascorbic acid, heparin, gentamycin, and amphotericin B). Cells were used between passages 4 and 6 for these studies. HCAE cells were plated at a density of 50,000 cells per well in 12-well plates and were grown for 3 days to reach confluency. Two-day post-confluent cells were treated with TNFα or TP508. Cells were then incubated in normoxic or 1% hypoxic conditions for the indicated times. In some experiments, cells were pretreated with TP508 for 1 h before TNFα stimulation. For RNA extraction, HCAE cells were cultured in 6-well plates.
The cell lysates were subjected to SDS-PAGE in a 10% polyacrylamide gel and transferred to a nitrocellulose membrane (0.2-μm, Invitrogen). After blocking with 5% milk, the membrane was incubated overnight at 4° C. with primary antibodies against phospho-eNOS (Ser 1177) and eNOS (Cell Signaling Technology, Beverly, Mass.), human type-1 arginase (clone 9C5) (Cell Sciences, Canton, Mass.), or GAPDH (Santa Cruz Biotechnology, Santa Cruz, Calif.). […]

[3] = system: eNOS mRNA; experiment: RT-PCR of eNOS mRNA in HCAE cells; assay type: cell-based, human; settings: 6 h, 25 or 30 cycles
Protocol: as §1
Total RNA was isolated using an Ambion isolation kit as described by the manufacturer.
RT-PCR for eNOS was performed by Ready-to-Go RT-PCR Beads (Amersham Biosciences) using a two-step protocol. First, cDNA synthesis was achieved by incubating 1 μg total RNA with 1 μg random hexamers (pdN6) as primers and M.-MuLV reverse transcriptase at 42° C. for 60 min. […]

[4] = system: eNOS mRNA; experiment: SYBR Green real-time PCR of eNOS mRNA in HCAE cells; assay type: cell-based, human; settings: 24 h
Protocol: as §1
Real time quantitative PCR was used to determine relative expression of eNOS mRNA in endothelial cells treated with TP508 or TNF. […] Quantitative PCR amplifications were done using 2 μl of cDNA in a total volume of 25 μl using SYBR green probes in the SYBR Green PCR Master Mix (ABI). […] The reverse-transcribed cDNA sample cycle threshold values were determined from triplicate samples and normalized to the 18S “housekeeping” gene.

[5] = system: ARG1; experiment: ARG1 expression in HAE cells treated with TNFα; assay type: cell-based, human
Source text: Under normoxic conditions, TP508 increased phosphorylated eNOS (p-eNOS) and eNOS in cells with and without TNFα/hypoxic treatment.

[6] = system: eNOS; experiment: Human VEGF-induced eNOS activation (phosphorylation at S1177) in HCAE cells, Western blot; assay type: cell-based
Protocol: Human VEGF-induced eNOS activation was determined by Western blotting using an antibody recognizing the activated form of eNOS (phosphorylated at […]) (Cell Signaling, Danvers, Mass.). The membrane was re-probed with anti-GAPDH (glyceraldehyde-3-phosphate dehydrogenase) antibody to show equal protein loading. A bar graph representing densitometric analysis of the activated eNOS Western blot after different treatments is shown in FIG. 8.

[7] = system: Human coronary artery endothelial (HCAE) cells; experiment: Transmembrane cell migration assay toward human VEGF (BD FluoroBlok inserts); assay type: cell-based; settings: VEGF 10 ng/ml, hypoxic, 22 h
Protocol: The ability of a test substance to attract endothelial cells and stimulate their migration through pores in the membrane is one of several tests to determine the angiogenic potential of test substances. […] Prior to migration assay, cells were cultured with or without TP508 to determine the effect of TP508 on endothelial migration. Human coronary artery endothelial (HCAE) cells (Lonza Walkersville, Inc., Walkersville, Md.) were cultured in the absence (control) or presence of TP508 [50 μg/ml] (“TP pret” in FIG. 9A and FIG. 9B) for 24 hours. Transmembrane cell migration assays were performed using BD FluoroBlok inserts (BD Bioscience, Bedford, Mass.) as described by the vendor. Control or TP508 pretreated cells were added into the top of the inserts. […] (V) or medium alone (C) was added to the lower chamber of the insert plate as a chemoattractant. Endothelial migration was performed in normoxic or 1% hypoxic conditions. After a 22-hour incubation, cells were labeled post-migration with Calcein AM and measured by detecting the fluorescence of the cells that migrated to the underside of the insert membrane.

[8] = system: Human coronary artery endothelial (HCAE) cells; experiment: Endothelial cell invasion assay through Matrigel toward human VEGF; assay type: cell-based; settings: cells not pretreated, VEGF 10 ng/ml, normoxic or hypoxic
Protocol: Invasion of endothelial cells through a Matrigel matrix is one of many assays used to determine the angiogenic potential of test substances and is thought to be more predictive of angiogenesis in vivo than a simple chemotactic assay through open membrane pores since the cells must degrade and invade the matrix to move into and through the pores in the membrane. […] Human coronary artery endothelial (HCAE) cells (Lonza Walkersville, Inc., Walkersville, Md.) were cultured in the absence (control) or presence of TP508 [50 μg/ml] (TP pret) for 24 hours. Endothelial cell invasion assays were performed using BD BioCoat™ Angiogenesis System (BD Bioscience, Bedford, Mass.) which utilizes FluoroBlok inserts coated with BD Matrigel Matrix (BD Bioscience, Bedford, Mass.). Control or TP508 pretreated cells were added into the top of the inserts. […] After 22 hours of incubation, cells were labeled post-invasion with Calcein AM and measured by detecting the fluorescence of the cells that migrated to the underside of insert membrane.

[9] = system: VEGF mRNA; experiment: Real-time PCR of VEGF mRNA in HCMVE cells; assay type: cell-based, human; settings: VEGF 10 ng/ml, 24 h
Source text: Real-time PCR analyses show changes in steady-state levels of VEGF mRNA after treatment. Data from one experiment performed in triplicate are shown in FIG. 11 as mean±SD. *p<0.01 compared to control (C) cells in normoxia. ^#p<0.01 compared to control (C) cells in hypoxia.

[10] = system: HLME (Human Lung Microvascular Endothelial Cells); experiment: Survival of serum-deprived HLME cells; assay type: cell-based
[11] = system: AC-23; experiment: Binding of biotin-conjugated thrombin to complementary peptide AC-23
Source text: Addition of TP508 inhibited specific binding of biotin-labeled thrombin to AC-23. Up to 60% of the binding of thrombin to AC-23 can be inhibited by the addition of TP508. Therefore, both thrombin and TP508 bind to the complementary peptide, AC-23. […] Antibodies to AC-23 and other complementary peptides of thrombin can therefore be used to characterize the thrombin binding site that is activated by TP508, and can be used in the therapeutic and other methods described herein.

[12] = system: 23C53; experiment: Binding of biotin-conjugated thrombin to complementary peptide 23C53
Chain of 23C53 (as listed by the source): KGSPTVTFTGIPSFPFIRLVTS

Chain of AC-23 (as listed by the source): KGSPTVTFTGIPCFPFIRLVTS

In the case of TNFα, the “ARG1 expression relative to control cultures” value [1] is reported as “significant increase”, the “Reduction of eNOS expression relative to normoxic controls” value [2] is reported as 65% and the “eNOS mRNA expression (RT-PCR)” value [3] is reported as “drastically decreased”. The “Decrease of eNOS mRNA level” value [4] was roughly 80% and the “Expression of ARG1” value [5] was “increasing expression”.
With VEGF the “Decrease of VEGF-stimulated eNOS phosphorylation in hypoxic compared to normoxic cells” value ([6]; hypoxic (1% O2, 24 h) HCAE cells, 1 min VEGF) was roughly 4 fold, the “VEGF-induced phosphorylation of eNOS on serine 1177, maximum” value ([6]; normoxic HCAE cells, VEGF 50 ng/ml, 1 minute) was 2 fold and the “Endothelial cell migration relative to media control cells” value [7] was roughly 150%. For the same substance, the “Invasion of control endothelial cells through Matrigel toward human VEGF” value [8] was “not stimulated”, the “VEGF mRNA in hypoxic cells” value ([9]; 1% hypoxic) was “no effect, or decreased” and the “Decrease of VEGF mRNA expression compared to control cells” value ([9]; normoxic) was 2 fold. For the same substance, the Cell survival [10] was “increased survival at lower levels”.
thrombin was tested, and the “Specific binding of thrombin to AC23” value [11] was “bind specifically” and the “Specific binding of thrombin to 23C53” value [12] was “bind specifically”.
